# Assay results published in patent US12263156B2, “Use of small molecule inhibitors of the BfrB:Bfd interaction in biofilms” (priority 2020, dated 2025).
# Values joined by “and” are separate entries in the source; they are usually repeats but may differ in a detail not shown here. Equal entries are not always repeated.
# Tests used:
# [1] = system: EYFP-expressing P. aeruginosa PAO1 pellicle biofilms; experiment: Determination of viable cells (CFU/mL) in pellicle biofilms; conditions: for % cell survival, CFU/mL(after treatment)/CFU/mL(pre-treatment): 2-day old pellicles, 24 h
# Experimental: (§1) Pellicle biofilms of EYFP-expressing P. aeruginosa PAO1 or clinical isolates were grown in PI media supplemented with 20 μM Fe. Starter cultures were diluted to OD600=0.001 in 4 mL media, placed in 35×10 mm petri dishes and incubated statically at 30° C. for 48 hours. The pellicles were transferred onto circular (1.5 cm diameter) glass coverslips by gently allowing the surface of a coverslip to contact a pellicle. The pellicle-adhered coverslip was washed in PBS and then deposited on top of 1.5 mL of AB challenge media contained in a well of a 12-well microplate, with the pellicle exposed to the media. […] The coverslip-adhered pellicles were exposed to challenge media at 30° C. for 24 hours, changing the challenge media every 12 hours by transferring the pellicle-adhered coverslip to a new plate containing pre-warmed challenge media.
# Pellicle biofilms were grown as described above. Planktonic and loosely attached cells were washed (3 times) by immersing the coverslip-adhered pellicles (biofilm facing up) into a well of a 12-well plate containing 3 mL of PBS, and incubating (5 min) with gentle rocking. To remove the pellicle from the coverslip, break the extracellular matrix and release cells from the biofilm, the coverslip-adhered pellicle was placed in a 50 mL conical tube containing a 2 mL suspension of zirconia beads (0.1 mm diameter, BioSpec Products), 10 mL PBS, 0.2 μg/mL alginate lyase and 0.2 μg/mL DNAse. The resultant mixture was incubated at room temperature for 3 min, followed by vigorous vortexing for 4 min. After sedimentation of the zirconia beads, a 100 μL aliquot was used for serial dilution and plating on PIA plates for subsequent enumeration of viable cells (CFU/mL).
# To assess the efficacy of antibiotics and compounds with an approach complementary to imaging with CLSM, dispersing biofilm cells for subsequent enumeration of viable cells (CFU/mL) was resorted to. […] The biofilms were then harvested, and the cells dispersed into sterile PBS by vortexing in the presence of zirconia beads, prior to plating the cell suspensions for subsequent enumeration of CFU/mL. […] A characteristic of cells in the VBNC state is their inability to develop into colonies on routine culture media, even though the cells remain viable for long periods of time.^58-59 Evidence that bacterial cells can enter the VBNC has been obtained by several distinct methods,^59 one of which is the utilization of bacteria engineered to constitutively express bioluminescent proteins, and using the bioluminescence as a reporter of metabolic activity.
# [2] = system: EYFP-expressing P. aeruginosa PAO1 biofilms; experiment: Flow cell biofilm assay (CLSM imaging, COMSTAT biomass); type: cell-based, Pseudomonas aeruginosa; conditions: 3-day old flow cell biofilms, 24 h treatment at 25× the MIC
# Experimental: ACS Infect. Dis. […] The experimental shear stress was 0.14-dyn/cm^2 (shear rate=14 s^−1, pressure=7.1 mbar, flow rate=0.4 mL/min) and the switch time was set to 540 s. […] During biofilm growth and challenge with antibacterial, the culture medium in the reservoirs was removed every 12 hours and replaced with fresh pre-warmed medium. […] The biofilms were imaged with the aid of a Leica TCS SP8 confocal microscope (Leica Microsystems, Germany) using a HC PL apo CS2 63×/1.4 oil objective. […] Image stacks were acquired with a z-step size of 0.3 μm at randomly chosen positions. The Leica Application Suite X (LAS-X) software was used for image stack processing.^54 Quantitative analysis of biofilm biomass was performed using the COMSTAT computer program^54 and the Otsu method of automatic thresholding.^85
# The treated biofilms were counterstained with the cell impermeable fluorescent nucleic acid dye Sytox Red and then imaged with the aid of confocal laser scanning microscopy (CLSM).
# [3] = system: EYFP-expressing P. aeruginosa PAO1 pellicle biofilms; experiment: Pellicle biofilm assay (CLSM imaging, COMSTAT biomass); type: cell-based, Pseudomonas aeruginosa; conditions: 24 h; for tolerance or susceptibility of pellicle biofilms (CLSM): 2-day old pellicles, ciprofloxacin, tobramycin 25× and 50× the MIC, colistin above 10× the MIC
# Experimental: as §1
# Excess fluorescent dye was washed with PBS, the coverslip was mounted on a glass slide using 5 μL of SlowFade (Invitrogen, Carlsbad, CA) and the edges sealed with fingernail polish. CLSM image stacks (z-step size of 0.3 μm) were acquired with the aid of a Leica TCS SP8 microscope, as described above. Quantitative analysis was performed by determination of pellicle biomass using COMSTAT^54 and the Otsu method of automatic thresholding.^85
# To expand the observations made with flow cell biofilms into a second biofilm model, the susceptibility of biofilms grown at the air-liquid interface (pellicles) was also studied.^56-57 Pellicle biofilms (henceforth pellicles) are an attractive alternative platform to study biofilms because pellicles are amenable to imaging by CLSM and to harvesting, which can be desirable for additional biofilm analysis.^26 To determine the susceptibility of pellicles to antibiotics or inhibitors of the BfrB-Bfd complex, 2-day old pellicles of EYFP-expressing P. aeruginosa cells were cultured in PI media supplemented with 20 μM Fe. The pellicles were transferred onto glass coverslips by allowing the surface of the coverslip to contact a pellicle.
# [4] = system: P. aeruginosa; conditions: reported MIC; cited from earlier work
# [5] = system: P. aeruginosa PAO1; experiment: Half maximal inhibitory concentration (IC50) of planktonic growth, CFU/mL enumeration; type: cell-based, Pseudomonas aeruginosa; conditions: for IC50: Pseudomonas aeruginosa, PAO1
# Experimental: Chemicals were purchased from Fisher Scientific (Waltham, MA) unless otherwise stated. P. aeruginosa PAO1 was obtained from the University of Washington Genome center.^80 The PAO1 strain expressing enhanced yellow fluorescent protein (EYFP) was prepared as described in Soldano, A.; Yao, H.; Chandler, J. R.; Rivera, M. (2020) Inhibiting Iron Mobilization from Bacterioferritin in Pseudomonas aeruginosa Impairs Biofilm Formation Irrespective of Environmental Iron Availability. ACS Infect. Dis. 6, 447-458. 10.1021/acsinfecdis.9b00398.^26 Clinical isolates of P. aeruginosa were purchased from JMI Laboratories (North Liberty, IA, USA). […] Starter cultures of P. aeruginosa PAO1 in 5 mL LB media were grown for 13 hours in 50 mL conical tubes at 37° C. and 220 rpm. For biofilm experiments, a EYFP-expressing P. aeruginosa strain was routinely grown in Pseudomonas Isolation (PI) media (20 g L^−1 peptone, 0.3 g L^−1 MgCl2·6H O, 10 g L^−1 K2SO4, 25 mg L^−1 irgasan, and 20 mL L^−1 glycerol, pH 7.0). Starter cultures were grown from a single colony at 37° C. and shaking at 220 rpm for 14 hours in 5 mL PI media supplemented with 10 μM Fe. Pellicle biofilms were cultured for 48 hours at 30° C. in PI media supplemented with 20 μM Fe. Surface-attached biofilms were cultured in AB minimal media^81 supplemented with trace metals [0.15 μM (NH4)2MoO4, 3 μM CuSO4, 2 μM Co(NO3)2, 9.4 μM Na2B4O7, and 7.6 μM ZnSO4], 3 mM glucose and 15 μM Fe. Iron supplementation was carried out by addition of a small volume of filter-sterilized 10 mM (NH4)2Fe(SO4)2 (pH˜2.0) solution. […]; IC50 values (Table 1 below) were determined as reported previously^25 with small modifications. In brief: precultures of P. aeruginosa PAO1 (5 mL) were grown in LB media for 13 hours at 37° C. and 220 rpm in 50 mL conical tubes (VWR International, PA). The cells were centrifuged for 5 min at 4,000 rpm and 4° C., washed two times and then diluted in buffer (100 mM KH2PO4 and 15 mM (NH4)2SO4 to an optical density at 600 nm (OD600) of 0.1. A small volume of compound stock solution (10 mM) was transferred to a microcentrifuge tube, initially diluted with DMSO to 20 μL, and then diluted to 1 mL with preculture cell suspension in defined media with OD600=0.0001, so the final DMSO concentration is 2%. The resultant cell suspension (200 μL) was transferred to a clear-bottom polystyrene 96-well plate (VWR International, PA) covered with a lid and incubated at 35° C. and 205 cpm for 24 h in a Synergy H1 microplate reader (Biotek Instruments Inc., Winooski, VT). The cell cultures were serially diluted and then plated on PI Agar (PIA; BD Biosciences, San Jose, CA) plates for enumeration of viable cells (CFU/mL). The % growth was calculated from the ratio CFU/mL(treated)/CFU/mL(untreated control). To calculate the IC50 values, the % growth was plotted as a function of compound concentration, expressed as log[compound] (μM), and fitted to the 4-parameter logistic model describing the sigmoid-shaped response pattern (equation 1),^83 where b is the slope factor, max is the upper asymptote (plateau), and min is the lower asymptote. Values are the average and standard deviation from three independent experiments.
# [6] = molecular target: BfrB (apo-BfrB) (Pseudomonas aeruginosa (strain ATCC 15692 / DSM 22644 / CIP 104116 / JCM 14847 / LMG 12228 / 1C / PRS 101 / PAO1), UniProt Q9HY79); experiment: Fluorescence polarization measurement of dissociation constant (Kd); type: binding; conditions: for Kd: 100 mM potassium phosphate buffer pH 7.6, 1 mM TCEP, 0.5% DMSO, average ± SD
# Experimental: Values were obtained in 100 mM potassium phosphate buffer (pH 7.6) containing 1 mM TCEP and 0.5% DMSO. The initial concentrations of KM-5-25 and KM-5-66 were 5 μM. The Kd values are the average and standard deviation from three independent measurements. […] The IC50 values are the average and the standard derivations from three independent experiments.
# Prior to testing the effect that the 4-substituted isoindoline-1,3-dione derivatives might exert on P. aeruginosa cells, the strength of their interaction with BfrB was evaluated in vitro with a fluorescence polarization assay developed based on the intrinsic fluorescence of the isoindoline-1,3-dione moiety.
# [7] = Aqueous solubility; type: physicochemical; conditions: aqueous solution
# [8] = planktonic growth, 24 h, 35° C, defined media, 2% DMSO, average ± SD of three experiments
compound,measurement,setting,value
colistin,"% cell survival, CFU/mL(after treatment)/CFU/mL(pre-treatment)",[1]; antibiotic at 25× the MIC,~10%
same,"% cell survival, CFU/mL(after treatment)/CFU/mL(pre-treatment)",[1]; antibiotic at 50× the MIC,~1%
same,"% survival (biomass remaining viable, COMSTAT)",[2],~20%
same,tolerance or susceptibility of pellicle biofilms (CLSM),[3],susceptible
same,fluorescence signal from viable cells expressing EYFP,[3]; colistin at 50× the MIC,undetectable
same,MIC,[4],1 μg/mL and 0.79 μM
Nc1cccc2c1C(=O)NC2=O [Analog 8],IC50 (μM),[5]; [8],Not active
"O=C1NC(=O)c2c(NCc3cc(O)cc(Cl)c3)cccc21 [KM-5-50, 4-((5-Chloro-3-hydroxybenzyl)amino)isoindoline-1,3-dione]",IC50,[5]; [8],82 ± 16 µM
same,Kd,[6],11 ± 2 µM
O=C1NC(=O)c2c(NCCCc3ccccc3O)cccc21 [KM-5-28],IC50,[5]; [8],96 ± 1 µM
same,Kd,[6],1.4 ± 0.2 µM
O=C1NC(=O)c2c(NCCCc3cc(O)cc(O)c3)cccc21 [KM-5-57],IC50,[5]; [8],> 200 µM
same,Kd,[6],2.5 ± 0.4 µM
same,fold increase of Kd relative to 16,[6]; relative to 16,~1.7 fold
"O=C1NC(=O)c2c(NCc3c(O)cccc3Cl)cccc21 [KM-5-29, 4-((6-Chloro-2-hydroxybenzyl)amino)isoindoline-1,3-dione]",aqueous solubility (in words),[7],poorly soluble in aqueous solution
same,Kd,[6],6 ± 0.5 µM
O=C1NC(=O)c2c(NCc3cccc(O)c3)cccc21 [Analog 12],IC50,[5]; [8],> 120 µM
same,Kd,[6],21 ± 3 µM
O=C1NC(=O)c2c(NCCCc3cc(Cl)ccc3O)cccc21 [KM-5-54],aqueous solubility (in words),[7],poor water solubility
same,Kd,[6],0.22 ± 0.04 µM
same,fold increase of binding affinity relative to JAG-5-6,[6]; relative to JAG-5-6,2 fold
"O=C1NC(=O)c2c(NCc3cccc(Cl)c3O)cccc21 [KM-5-30, 4-((3-Chloro-2-hydroxybenzyl)amino)isoindoline-1,3-dione]",IC50,[5]; [8],156 ± 30 µM
same,fold larger IC50 relative to KM-5-25,[5]; relative to KM-5-25,~2.5 fold
same,Kd,[6],6 ± 1 µM
"O=C1NC(=O)c2c(NCc3cc(F)ccc3O)cccc21 [JAG-5-7, 4-((5-Fluoro-2-hydroxybenzyl)amino)isoindoline-1,3-dione]",IC50,[5]; [8],128 ± 26 µM
same,Kd,[6],7 ± 2 µM
O=C1NC(=O)c2c(NCCCc3cccc(O)c3)cccc21 [Analog 16],relative compound activity (rank order),[1]; pellicles treated 24 h with 50 μM of each analog,KM-5-66>KM-5-25>16>11
same,IC50,[5]; [8],121 ± 4 µM
same,Kd,[6],1.5 ± 0.25 µM
O=C1NC(=O)c2c(NCc3ccccc3O)cccc21 [Analog 11],IC50,[5]; [8],258 ± 23 µM
O=C(O)c1cn(C2CC2)c2cc(N3CCNCC3)c(F)cc2c1=O [ciprofloxacin],MIC,[4],0.25 μg/mL and 0.75 μM
O=C1NC(=O)c2c(NCCCc3cc(F)ccc3O)cccc21 [JAG-5-6],IC50,[5]; [8],54 ± 9 µM
same,fold decrease in IC50 relative to KM-5-28,[5]; relative to KM-5-28,~2 fold
same,Kd,[6],0.43 ± 0.07 µM
same,fold lowered Kd relative to KM-5-28,[6]; relative to KM-5-28,~3 fold
"NC[C@H]1O[C@H](O[C@H]2[C@H](O)[C@@H](O[C@H]3O[C@H](CO)[C@@H](O)[C@H](N)[C@H]3O)[C@H](N)C[C@@H]2N)[C@H](N)C[C@@H]1O [tobramycin, reference compound]","% cell survival, CFU/mL(after treatment)/CFU/mL(pre-treatment)",[1]; antibiotic at 25× the MIC,~70%
same,"% cell survival, CFU/mL(after treatment)/CFU/mL(pre-treatment)",[1]; antibiotic at 50× the MIC,~70%
same,"% survival (biomass remaining viable, COMSTAT)",[2],~70%
same,tolerance or susceptibility of pellicle biofilms (CLSM),[3],tolerant
same,MIC,[4],0.5 μg/mL and 1.07 μM
